The text below walks through data of PMC3805590, “Isozyme-Specific Ligands for O-acetylserine sulfhydrylase, a Novel Antibiotic Target” (PLoS ONE, 2013).

One assay has as its target T1, OASS-A (Salmonella typhimurium, UniProt P0A1E3).
T1 construct: OASS-A and OASS-B were expressed and purified as previously described; made in house
Briefly: Ligand binding affinity to OASS-A by PLP fluorescence titration. As to conditions: for Kd: PLP fluorescence at 500 nm, excitation 412 nm, 100 mM Hepes pH 7.0, 20 °C. As for the experimental part:
(§1) OASS-A and OASS-B were expressed and purified as previously described. The binding affinity of selected ligands to OASS-A and OASS-B was determined by monitoring the increase in fluorescence emission of the bound PLP at 500 nm following excitation at 412 nm, [55]. Emission spectra were collected at increasing ligand concentrations in the presence of 0.05–1 µM OASS, 100 mM Hepes buffer, pH 7.0 at 20°C. DMSO and/or potassium hydroxide were added when needed to solubilize the compounds and pH was checked to be between 7 and 8.5. Spectra were corrected for the buffer contribution. Fluorescence measurements were carried out using a FluoroMax-3 fluorometer (HORIBA-Jobin Yvon), equipped with a thermostated cell-holder.
(§2) The dependence of fluorescence intensity at 500 nm on ligand concentration was fitted to a binding isotherm: [drawing 1] (1) where I is the fluorescence intensity at 500 nm in the presence of the ligand, I0 is the fluorescence intensity in the absence of ligand, Imax is the maximum fluorescence change at saturating ligand concentrations, [L] is the ligand concentration, and Kd is the dissociation constant of the OASS-ligand complex. This measurement is a direct determination of ligand dissociation constant in the absence of substrate, thus it coincides with Ki, independently from the inhibition mechanism.
(§3) A total of 12 compounds for OASS-A (Table 1) and 11 compounds for OASS-B (Table 2) predicted to be potential ligands were experimentally tested by determining their dissociation constants exploiting PLP fluorescence changes as a function of ligand concentration. The observed increases in coenzyme fluorescence and the concomitant blue shifts of the peaks upon ligand binding result from the closure of the active site – thus altering the coenzyme microenvironment, [55]. It is important to point out that the evaluated dissociation constants for these compounds correspond to their inhibition constants, Ki, because they occupy the enzyme active site, [19], and, therefore, are purely competitive inhibitors.

The next assay deals with T2, OASS-B (Salmonella typhimurium, UniProt P29848).
T2 construct: OASS-A and OASS-B were expressed and purified as previously described; made in house
T2 sequence (P29848 whole entry): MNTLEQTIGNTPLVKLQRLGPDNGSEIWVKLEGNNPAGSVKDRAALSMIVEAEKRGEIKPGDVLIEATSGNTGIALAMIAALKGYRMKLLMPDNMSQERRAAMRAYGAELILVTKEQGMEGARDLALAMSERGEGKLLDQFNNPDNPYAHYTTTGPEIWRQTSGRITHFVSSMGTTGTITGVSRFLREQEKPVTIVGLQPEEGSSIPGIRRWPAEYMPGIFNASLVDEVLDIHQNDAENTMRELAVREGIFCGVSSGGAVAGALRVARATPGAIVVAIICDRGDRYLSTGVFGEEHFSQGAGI
Put plainly: Ligand binding affinity to OASS-B by PLP fluorescence titration. As to conditions: PLP fluorescence at 500 nm, excitation 412 nm, 100 mM Hepes pH 7.0, 20 °C. The method, then: as §1, §2, §3

A further assay concerns OASS. Briefly: Reaction or time-dependent inactivation of OASS by ligand. In kind it is biochemical, Salmonella typhimurium. As to conditions: under the paper's experimental conditions.
For assay [1], the system named is S. typhimurium knock-out for cysteine synthase. Also on record: method as in PMID 18957594. As to conditions: cysteine synthase knock-out vs wild type; cited from earlier work.

Structures are written as SMILES. Values joined by “and” are separate entries in the source; they are usually repeats but may differ in a detail not shown here. Identical values can stand only once.

T1 sequence (P0A1E3 whole entry): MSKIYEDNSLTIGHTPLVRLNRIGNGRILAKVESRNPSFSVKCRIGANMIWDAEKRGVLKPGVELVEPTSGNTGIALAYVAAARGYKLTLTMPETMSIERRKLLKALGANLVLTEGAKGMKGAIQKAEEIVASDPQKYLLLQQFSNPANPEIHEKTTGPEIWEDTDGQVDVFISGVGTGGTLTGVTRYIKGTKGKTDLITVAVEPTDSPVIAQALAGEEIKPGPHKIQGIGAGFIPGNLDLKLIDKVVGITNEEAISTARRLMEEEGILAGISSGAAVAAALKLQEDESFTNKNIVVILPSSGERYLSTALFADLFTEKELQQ

Regarding `O=C(O)CNC(=O)CNC(=O)C1C2C=CC(C2)C1C(=O)O` (centres unmarked) [Compound 1], the Kd at OASS-A is 3.8 µM and < 100 µM and 3.7 µM; at OASS-B, 50 ± 5 µM.
In the case of `O=C(O)C1CC=CCC1C(=O)Nc1nncs1` (centres unmarked) [Compound 2], the Kd is 82 ± 18 µM on OASS-A and over 1500 µM on OASS-B.
The matching figures for `CC(C)C(NS(=O)(=O)c1cccs1)C(=O)O` (centres unmarked) [Compound 3]: 95 ± 10 µM and over 1500 µM.
At OASS-A, `O=C(O)CC(C(=O)O)c1ccccc1` (centres unmarked) [Compound 4] registered a dissociation constant Kd of 103 ± 9 µM.
The same measure, in the same setting: the figure for `O=C(O)C1CCCCN1S(=O)(=O)c1cccc([N+](=O)[O-])c1` (centres unmarked) [Compound 5] is 218 ± 61 µM.
On OASS-A, `O=C(O)C1CC=CCC1C(=O)NCc1ccncc1` (centres unmarked) [Compound 6] gave a dissociation constant Kd of 283 ± 19 µM.
Still for that read-out and setting: as for `CC(C)CC(NC(=O)c1ccco1)C(=O)O` (centres unmarked) [Compound 7], the figure is 558 ± 131 µM; as for `CC1=C(C(=O)O)N2C(=O)C(NC(=O)c3nn(C)cc3[N+](=O)[O-])C2SC1` (centres unmarked) [Compound 8], 732 ± 72 µM; as for `O=C(NC(Cc1ccccc1)C(=O)O)c1ccco1` (centres unmarked) [Compound 9], 1300 ± 400 µM.
Still for that read-out and setting: the figure for `Cc1nnc(NC(=O)c2c(C(=O)O)cccc2[N+](=O)[O-])s1` [Compound 10] is over 1500 µM; for `O=C(O)c1ccoc1CN1CCOCC1` [Compound 11] it is over 1500 µM.
Consider `CC(C)CC(NC=C1C(=O)OC(C)(C)OC1=O)C(=O)O` (centres unmarked) [Compound 12], for which the Kd on OASS-A is over 1500 µM. For the same compound, the “binding to OASS-A (in words)” value at OASS-A (fluorimetric titration) was “no binding was observed”.
Consider `O=C(O)/C=C(/Cl)CC(=O)O` [Compound 13], for which the results for the Kd on OASS-A and on OASS-B were 29 ± 3 µM and 33 ± 2 µM, respectively. The “reaction or time-dependent inactivation of OASS” value with OASS was “no reaction or time-dependent inactivation of OASS was observed”.
`Cn1nnnc1Sc1ncccc1C(=O)O` [Compound 14]: the Kd on OASS-A is over 1500 µM; on OASS-B, 810 ± 110 µM.
`O=C(O)CSc1nsc(SCC(=O)O)n1` [Compound 16] had a Kd at OASS-B of over 1500 µM.
Still for that read-out and setting: the figure for `CC1(C)OC(=O)C(=CNC(CCC(=O)O)C(=O)O)C(=O)O1` (centres unmarked) [Compound 17] is over 1500 µM.
Same read-out and setting: the figure for `CC1(C(=O)O)Cc2oncc2CC1C(=O)O` (centres unmarked) [Compound 18] is over 1500 µM; for `O=C(O)CCN(CCC(=O)O)S(=O)(=O)c1ccccc1` [Compound 19] it is over 1500 µM.
Same read-out and setting: the figure for `CCC1([N+](=O)[O-])CN(CC(=O)O)CN(CC(=O)O)C1` [Compound 21] is over 1500 µM.
Consider `C[S+]([O-])CCC(NS(=O)(=O)c1ccccc1)C(=O)O` (centres unmarked) [Compound 22], for which the Kd at OASS-B is over 1500 µM.
On the same count and under the same terms, as for `CCn1ncc([N+](=O)[O-])c1C(=O)O` [Compound 23], the figure is over 1500 µM.
Consider `O=C(O)c1cn(C2CC2)c2cc(N3CCNCC3)c(F)cc2c1=O` [ciprofloxacin], for which the “MIC lower than wild type bacterium” value in assay [1] is 500 fold.
